# Results as given in article PMC11768370, “Etodolac Single Dose Metabolic Profile Elucidation: Pharmacokinetics and Adverse Events in Healthy Volunteers” (Pharmaceuticals, 2025).
# Tested on: plasma metabolites
# Assay: Untargeted plasma metabolomic profile pre-dose (T0) vs post-dose (Tmax), UPLC-QToF
# Format: in vivo, human
# Conditions: healthy volunteers, single dose 500 mg
# Procedure: Samples were collected at two times: (i) baseline samples (time 0 h), termed the pre-dose group, and (ii) samples at maximum drug concentration (Cmax), termed the post-dose group. Samples were randomized, and 25 μL of each was collected to form a pooled sample for quality control (QC). An aliquot of plasma (200 μL) was extracted by adding cold methanol (400 μL) for protein precipitation. The samples were then vortexed for 30 s and centrifuged at 12,879× g for 10 min at 4 °C. Finally, the supernatant (400 μL) was collected and dried over a stream of nitrogen gas (N2). Samples were resuspended with 200 µL of acetonitrile (ACN)/water (H2O) (1:1 v/v). Sample extraction and analysis were randomized to reduce instrumental and biological bias. QC samples were analyzed every 10 samples to check for variations in extraction and system stability.
# The analysis was adapted and performed on an ACQUITY® FTN H Class (Waters, Newcastle, UK) liquid chromatography (UPLC) coupled to a XEVO-G2XS (QToF) quadrupole time-of-flight mass spectrometer (UPLC-QToF) (Waters, Manchester, UK) equipped with an electrospray ionization (ESI) source operated in the positive and negative ionization mode, separately. An ACQUITY UPLC ® CSH C18 column (2.1 mm × 100 mm × 1.7 µm, Waters, Newcastle, UK) was employed as a stationary phase. […]
smiles,measurement,value
CCc1cccc2c3c([nH]c12)C(CC)(CC(=O)O)OCC3 (centres unmarked) [Etodolac],6-ketoprostaglandin E1 relative abundance at Tmax compared to T0,increases twist time in relative abundance
same,15-epi-lipoxin A4 relative abundance at Tmax compared to T0,increases in relative abundance
